Source: US8759481B2, “Peptide vaccines for cancers expressing tumor-associated antigens” (Oncotherapy Science, Inc., priority 2007, dated 2014)

Tested on: CD8+ T cells (HLA-A*0201 donors)
Assay: In vitro CTL induction with peptide-pulsed DCs (positive donor number)
Type: cell-based, human
Conditions: HLA-A*0201, 9-mer peptides derived from INHBB; positive/total donors
Procedure, shortened: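 Monocyte-derived DCs (GM-CSF/IL-4, 7 days) pulsed with 20 μg/ml peptide plus β2-microglobulin, MMC-inactivated, co-cultured 1:20 with autologous CD8+ T cells with IL-7, then IL-2; restimulated days 7 and 14. CTL activity tested against peptide-pulsed T2 cells on day 21; value = positive donors/total donors.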

VQCDSCQEL was tested, and the positive donor number was 0/1.
